Experimental data reported in patent US8691576B2, “Regeneration and mass propagation of Jatropha curcas through somatic embryogenesis” (Joil (S) Pte Ltd., priority 2008, dated 2014).

Tests used:
Format in all cases: cell-based
[1] = tested on: Jatropha curcas immature zygotic embryo and endosperm explants; assay: Effect of 2,4-D concentration and zygotic embryo size on somatic embryo and calli formation; design: key to Explant Development Root Length / Explant Development Hypocotyl Length / Explant Development Calli Size: The relative size of explants and calli are indicated by the number of + symbols.; ++: The relative size of explants and calli are indicated by the number of + symbols.; +++: The relative size of explants and calli are indicated by the number of + symbols.; ++++: The relative size of explants and calli are indicated by the number of + symbols.; +++++: The relative size of explants and calli are indicated by the number of + symbols; settings: end of 3rd week
Method: Developing fruits were surfaced-sterilized and dissected to yield 200 immature zygotic embryos that were shorter than 1.5 cm in length. The embryos were separated into two groups, “<0.5 cm” and “0.5-1.5 cm”. The endosperm and zygotic embryo explants were cultured on solid media with various concentration of 2,4-D. On the 5th day, the embryos, which became greenish, enlarged and hardened, were removed from the endosperms and cut into small pieces of about 0.25 cm^2 each. The endosperm and embryo explants were cultured separately on the same media in the dark at 28° C. It was confirmed that most somatic embryos were produced on the endosperm explants where the embryos had been detached. It is apparent that, although 2,4-D was not essential for initiation of somatic embryos; […] concentration of it causes excessive expansion of explants.

[2] = tested on: Jatropha curcas embryogenic calli; assay: Embryogenic liquid suspension culture; settings: liquid medium
Method: FIGS. 5A-5D show embryogenic liquid suspension culture. About 50 mg embryogenic calli produced in solid DGA medium were inoculated in 20 ml modified DGA liquid media. Embryos larger than 2 mm were removed before inoculation. Subculture was done every two weeks. Photos were taken after 2 subcultures. FIG. 5A: 20 g/l sucrose, 1 g/l glutamine, 0.5 g/l asparagine, no 2,4-D. FIG. 5B: 20 g/l sucrose, 1 g/l glutamine, 0.5 g/l asparagine, 0.2 g/1 2,4-D. FIG. 5C: 30 g/l sucrose, 1 g/l glutamine, 0.5 g/l asparagine, 0.2 g/1 2,4-D. FIG. 5D: 20 g/l sucrose, 1 g/l glutamine, 0.5 g/l asparagine, 1 g/1 2,4-D. Arrow indicates the non-embryogenic ball-shaped calli. Scale bar represents 1 cm.
Liquid cultures were performed in 65 mm plastic cylinder containers or 250 ml glass conical flasks that were placed in shakers set at 80 rpm, 28° C. constant temperature and 16-8 hours day-light cycles.
Effects 2,4-D and carbon source on establishment of somatic embryogenic liquid suspension culture was investigated. […] At sucrose level ranging from 10-30 g/l, continued culture lead to maturation of the somatic embryo with no new initiation of secondary embryos (FIG. 5A). The somatic embryos thus produced share good synchrony and are excellent materials for re-induction of TIISEs (Refer to Example 13). […] The suspension cultures were stable for months if large embryos were removed. Further, sucrose concentration needs to be reduced below about 20 g/l (compare FIGS. 5B and 5C).

[3] = tested on: Jatropha curcas zygotic embryo and endosperm explants; assay: Type I somatic embryo (TISE) formation on solid media with 2,4-D; settings: for TISE (%) / TISE Count: 0.1 mg/l kinetin, 8 weeks
Method: Developing fruits were surfaced sterilized. The immature zygotic embryos and endosperms (En) were separated from each other using a surgical scalper blade. Zygotic embryos longer than 0.5 cm were further cut at the cotyledon-hypocotyl junction to produce explants of cotyledons only and hypocotyls with the root radicals. Zygotic embryos shorter than 0.5 cm were cultured intact as they are too fragile. We classified these explants as cotyledons (Cot); hypocotyls with root radicals (Rh); intact embryos (Eb) and endosperm (En).
The explants were cultured on a solid medium comprising MS salt, B5 vitamins and various concentrations of 2,4-D ranging from 0.1 to 20 mg/L. Kinetin was added at 0.1 mg/L in some of the treatments. Somatic embryos started to emerge without obvious sign of calli formation around 10th day, which predominantly formed on the edge of the endosperm tissues where the embryo had been detached. The somatic embryos most likely originated from the residual diploid cells of the zygotic embryo tissue attached on the endosperm. […] These somatic embryos developed speedily and predominantly matured as single embryo (FIG. 1). We called them Type I Somatic Embryo (TISE).

O=C(O)COc1ccc(Cl)cc1Cl [2,4-D, 2,4-dichlorophenoxyacetic acid]
Explant Development Calli Size ([1]; 2,4-D 0.1 mg/L): ++
Explant Development Hypocotyl Length ([1]; 2,4-D 0.1 mg/L): +++++
Explant Development Root Length ([1]; 2,4-D 0.1 mg/L): ++++
Explant Development Calli Size ([1]; 2,4-D 0.2 mg/L): ++
Explant Development Hypocotyl Length ([1]; 2,4-D 0.2 mg/L): ++++
Explant Development Root Length ([1]; 2,4-D 0.2 mg/L): +++
Explant Development Calli Size ([1]; 2,4-D 0.5 mg/L): +++
Explant Development Hypocotyl Length ([1]; 2,4-D 0.5 mg/L): +++
Explant Development Root Length ([1]; 2,4-D 0.5 mg/L): ++
Explant Development Calli Size ([1]; 2,4-D 1 mg/L): ++++
Explant Development Hypocotyl Length ([1]; 2,4-D 1 mg/L): +++
Explant Development Root Length ([1]; 2,4-D 1 mg/L): ++
Explant Development Calli Size ([1]; 2,4-D 2 mg/L): ++++
Explant Development Hypocotyl Length ([1]; 2,4-D 2 mg/L): +
Explant Development Root Length ([1]; 2,4-D 2 mg/L): +
Explant Development Calli Size ([1]; 2,4-D 5 mg/L): +++
Explant Development Hypocotyl Length ([1]; 2,4-D 5 mg/L): +
Explant Development Root Length ([1]; 2,4-D 5 mg/L): +
Explant Development Calli Size ([1]; 2,4-D 10 mg/L): +++
Explant Development Hypocotyl Length ([1]; 2,4-D 10 mg/L): +
Explant Development Root Length ([1]; 2,4-D 10 mg/L): +
Explant Development Calli Size ([1]; 2,4-D 15 mg/L): ++
Explant Development Hypocotyl Length ([1]; 2,4-D 15 mg/L): +
Explant Development Root Length ([1]; 2,4-D 15 mg/L): +
Explant Development Calli Size ([1]; 2,4-D 20 mg/L): +
Explant Development Hypocotyl Length ([1]; 2,4-D 20 mg/L): +
Explant Development Root Length ([1]; 2,4-D 20 mg/L): +
Calli formation [1]: more favorable at about 0.5-10 mg/l
maturation of somatic embryos ([2]; 2,4-D 0.1-0.5 g/l): significantly inhibited maturation of somatic embryos
calli multiplication and embryogenicity ([2]; 2,4-D higher than 0.5 g/l): calli multiplication and embryogenicity was poor
TISE (%) ([3]; 2,4-D 0.1 mg/L): 84%
TISE Count ([3]; 2,4-D 0.1 mg/L, 19 explants): 16
TISE (%) ([3]; 2,4-D 0.2 mg/L): 54%
TISE Count ([3]; 2,4-D 0.2 mg/L, 28 explants): 15
TISE (%) ([3]; 2,4-D 0.5 mg/L): 50%
TISE Count ([3]; 2,4-D 0.5 mg/L, 16 explants): 8
TISE (%) ([3]; 2,4-D 1 mg/L): 42%
TISE Count ([3]; 2,4-D 1 mg/L, 19 explants): 8
TISE (%) ([3]; 2,4-D 2 mg/L): 76%
TISE Count ([3]; 2,4-D 2 mg/L, 25 explants): 19
TISE (%) ([3]; 2,4-D 5 mg/L): 57%
TISE Count ([3]; 2,4-D 5 mg/L, 23 explants): 13
TISE (%) ([3]; 2,4-D 10 mg/L): 43%
TISE Count ([3]; 2,4-D 10 mg/L, 21 explants): 9
TISE (%) ([3]; 2,4-D 20 mg/L): 38%
TISE Count ([3]; 2,4-D 20 mg/L, 13 explants): 5
TISE formation ([3]; 2,4-D 0.1 to 20 mg/L): appeared to be inhibitory at high levels
